Among the test systems are IGROV1 ovarian; UACC-62 melanoma; RPMI-8226 leukemia; HT29 colon; HS 578T breast; NCI/ADR-RES ovarian; NCI-H522 lung; LOX IMVI melanoma; UACC-257 melanoma; HCT-116 colon; SNB-19 CNS; A549 NSCLC; SK-MEL-28 melanoma; OVCAR-3 ovarian; MDA-MB-435; MDA-MB-231 breast; MDA-N; SK-MEL-2 melanoma; SN12C renal; EKVX NSCLC.
Holding throughout (assay): NCI tumour cell line growth inhibition, 48 h

Molecules are shown by their SMILES.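 Test compounds were applied to cells in 96-well plates for 48 hours at 5 doses. The concentration for full growth arrest is given as TGI.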

As for `CNC(=O)CCCNC(=O)CCCC(=O)OC`, the TGI in the assay with IGROV1 ovarian, in the assay on UACC-62 melanoma, with RPMI-8226 leukemia, with HT29 colon, with HS 578T breast and with NCI/ADR-RES ovarian was more than 100 µM in each case. Also, the TGI in the assay with NCI-H522 lung, in the assay on LOX IMVI melanoma, in the assay on UACC-257 melanoma, in the assay with HCT-116 colon, in the assay on SNB-19 CNS and in the assay with A549 NSCLC was more than 100 µM in each case. The TGI in the assay on SK-MEL-28 melanoma, in the assay with OVCAR-3 ovarian, in the assay with MDA-MB-435, in the assay with MDA-MB-231 breast, in the assay with MDA-N and with SK-MEL-2 melanoma was more than 100 µM each time. For the same molecule, the TGI with SN12C renal and in the assay on EKVX NSCLC was more than 100 µM throughout.
Turning to `O=c1cc(CNC2CC3CCC2C3)[nH]c(=O)[nH]1` (stereo not drawn), the TGI in the assay with IGROV1 ovarian, with UACC-62 melanoma, with RPMI-8226 leukemia, in the assay with HT29 colon, in the assay with HS 578T breast and with NCI/ADR-RES ovarian was more than 100 µM throughout. Further, the TGI in the assay on NCI-H522 lung, in the assay with LOX IMVI melanoma, in the assay with UACC-257 melanoma, in the assay on HCT-116 colon, with SNB-19 CNS and with A549 NSCLC was more than 100 µM throughout. Also, the TGI with SK-MEL-28 melanoma, in the assay with OVCAR-3 ovarian, with MDA-MB-435, with MDA-MB-231 breast, in the assay on MDA-N and in the assay on SK-MEL-2 melanoma was more than 100 µM each time. For the same molecule, the TGI in the assay with SN12C renal and with EKVX NSCLC was more than 100 µM each time.
For the molecule `COC1=C2CC(C)CC(OC)C(OC(=O)CCCN)C(C)/C=C(\C)C(OC(N)=O)C(OC)/C=C\C=C(/C)C(=O)NC(=CC1=O)C2=O` (stereo not drawn), the TGI in the assay with IGROV1 ovarian came to 18.6 µM; in the assay on UACC-62 melanoma, 18.7 µM; with RPMI-8226 leukemia, 32.5 µM; in the assay with HT29 colon, 13.2 µM; with HS 578T breast, 40.7 µM; with NCI/ADR-RES ovarian, 43.7 µM. Further, the TGI was 1.96 µM in the assay with NCI-H522 lung; 11.4 µM in the assay on LOX IMVI melanoma; 17.7 µM with UACC-257 melanoma; 15.9 µM with HCT-116 colon; 24.9 µM in the assay with SNB-19 CNS; 55.1 µM in the assay with A549 NSCLC. In addition, the TGI with SK-MEL-28 melanoma turned out to be 23.7 µM; with OVCAR-3 ovarian, 16.8 µM; in the assay on MDA-MB-435 it was 12.4 µM; in the assay on MDA-MB-231 breast it was 36.1 µM; in the assay with MDA-N, 20.7 µM; in the assay on SK-MEL-2 melanoma it was 26.9 µM. The TGI with SN12C renal came out at 16.1 µM; with EKVX NSCLC it was 26.6 µM.
Consider `O=C1C=C(C2=C(C3=CC(=O)c4ccccc4C3=O)C(=O)c3ccccc3C2=O)C(=O)c2ccccc21`, for which the TGI turned out to be 8.1 µM with IGROV1 ovarian; 31.6 µM with UACC-62 melanoma; 12.2 µM with RPMI-8226 leukemia; 12.5 µM with HT29 colon; 40 µM in the assay with HS 578T breast; 36.4 µM in the assay on NCI/ADR-RES ovarian. The TGI stood at 7.17 µM in the assay on NCI-H522 lung; 14.6 µM in the assay on LOX IMVI melanoma; 25.4 µM in the assay on UACC-257 melanoma; 20.5 µM with HCT-116 colon; 37.7 µM in the assay with SNB-19 CNS; 27 µM in the assay on A549 NSCLC. Moreover, the TGI is 29.8 µM in the assay on SK-MEL-28 melanoma; 12.9 µM in the assay with OVCAR-3 ovarian; 6.28 µM in the assay with MDA-MB-435; 13.8 µM with MDA-MB-231 breast; 5.65 µM with MDA-N; 42.4 µM with SK-MEL-2 melanoma. The TGI worked out at 16.5 µM in the assay with SN12C renal and 33.8 µM in the assay with EKVX NSCLC.
As to `O=[N+]([O-])C(=C/c1cccc2ccccc12)/C(=C\c1cccc2ccccc12)[N+](=O)[O-]`, the TGI in the assay on IGROV1 ovarian was 4.13 µM; in the assay on UACC-62 melanoma, 3.23 µM; in the assay with RPMI-8226 leukemia it was 6.05 µM; in the assay with HT29 colon, 5.13 µM; in the assay with HS 578T breast, 17.1 µM; in the assay with NCI/ADR-RES ovarian it was 5.79 µM. The TGI in the assay on NCI-H522 lung was 3.63 µM; in the assay on LOX IMVI melanoma it was 3.06 µM; with UACC-257 melanoma, 5.44 µM; in the assay on HCT-116 colon it was 7.2 µM; in the assay with SNB-19 CNS, 11.5 µM; in the assay on A549 NSCLC it was more than 58.6 µM. Besides, the TGI with SK-MEL-28 melanoma stood at 4.05 µM; with OVCAR-3 ovarian it was 15.5 µM; in the assay on MDA-MB-435 it was 6.12 µM; in the assay with MDA-MB-231 breast, 5.14 µM; in the assay with MDA-N it was 8.25 µM; with SK-MEL-2 melanoma, 55.3 µM. Also, the figures for the TGI with SN12C renal and in the assay on EKVX NSCLC were 6.55 µM and 11.6 µM, respectively.
Turning to `BrCc1ccc(CBr)c2c1-c1c(CBr)ccc3ccc(CBr)c-2c13`, the TGI in the assay on IGROV1 ovarian, in the assay with UACC-62 melanoma, in the assay with RPMI-8226 leukemia, in the assay with HT29 colon, in the assay with HS 578T breast and in the assay on NCI/ADR-RES ovarian was more than 100 µM throughout. Also, the TGI in the assay with NCI-H522 lung, with LOX IMVI melanoma, in the assay on UACC-257 melanoma, in the assay on HCT-116 colon, in the assay on SNB-19 CNS and in the assay on A549 NSCLC was more than 100 µM throughout. In addition, the TGI in the assay on SK-MEL-28 melanoma, in the assay on OVCAR-3 ovarian, with MDA-MB-435, in the assay with MDA-MB-231 breast, in the assay on MDA-N and in the assay on SK-MEL-2 melanoma was more than 100 µM throughout. Besides, the TGI with SN12C renal and in the assay with EKVX NSCLC was more than 100 µM throughout.
On to `CCOC(=O)/C=C\C(C#N)(C#N)N=Cc1ccsc1`, for which the TGI is 28.2 µM in the assay on IGROV1 ovarian; 32 µM with UACC-62 melanoma; 4.25 µM with RPMI-8226 leukemia; 28.1 µM in the assay on HT29 colon; 48.4 µM with HS 578T breast; 15.3 µM in the assay on NCI/ADR-RES ovarian. In addition, the TGI with NCI-H522 lung amounted to 2.83 µM; with LOX IMVI melanoma it was 15.1 µM; in the assay on UACC-257 melanoma, 20.9 µM; in the assay on HCT-116 colon, 4.72 µM; with SNB-19 CNS it was 55.2 µM; in the assay on A549 NSCLC, 38.2 µM. Further, the TGI in the assay with SK-MEL-28 melanoma was 6.89 µM; in the assay with OVCAR-3 ovarian, 6.42 µM; in the assay on MDA-MB-435, 6.63 µM; in the assay on MDA-MB-231 breast, 30.9 µM; in the assay on MDA-N, 24.5 µM; in the assay with SK-MEL-2 melanoma it was 33.1 µM. Besides, the values for the TGI in the assay with SN12C renal and in the assay with EKVX NSCLC were 36.3 µM and 30.6 µM, respectively.
For `Cc1ccc(S(=O)(=O)NC(=O)Nc2cc(Cl)c(S(N)(=O)=O)cc2S(N)(=O)=O)cc1`, the TGI in the assay with IGROV1 ovarian, with UACC-62 melanoma, in the assay on RPMI-8226 leukemia, with HT29 colon, in the assay on HS 578T breast and in the assay with NCI/ADR-RES ovarian was more than 100 µM throughout. Also, the TGI in the assay on NCI-H522 lung, in the assay on LOX IMVI melanoma, in the assay on UACC-257 melanoma, with HCT-116 colon, with SNB-19 CNS and with A549 NSCLC was more than 100 µM in each case. Further, the TGI in the assay with SK-MEL-28 melanoma, with OVCAR-3 ovarian, with MDA-MB-435, in the assay on MDA-MB-231 breast, in the assay on MDA-N and in the assay on SK-MEL-2 melanoma was more than 100 µM in each case. Besides, the TGI with SN12C renal and in the assay with EKVX NSCLC was more than 100 µM in each case.
With `CCOC(=O)/C=C/C1(CCOC(C)=O)CCCCC1`, the TGI in the assay with IGROV1 ovarian, in the assay with UACC-62 melanoma, with RPMI-8226 leukemia, in the assay on HT29 colon, in the assay on HS 578T breast and in the assay with NCI/ADR-RES ovarian was more than 10 µM in each case. Also, the TGI in the assay on NCI-H522 lung, with LOX IMVI melanoma, in the assay on UACC-257 melanoma, with HCT-116 colon, in the assay on SNB-19 CNS and in the assay on A549 NSCLC was more than 10 µM throughout. For the same molecule, the TGI in the assay with SK-MEL-28 melanoma, in the assay on OVCAR-3 ovarian, in the assay on MDA-MB-435, in the assay on MDA-MB-231 breast, in the assay on MDA-N and with SK-MEL-2 melanoma was more than 10 µM throughout. Further, the TGI with SN12C renal and in the assay on EKVX NSCLC was more than 10 µM in each case.
With `N#Cc1c(-c2ccccc2)cc(-c2ccccc2)n(C2OCC(O)C(O)C2O)c1=S` (stereo not drawn), the TGI in the assay on IGROV1 ovarian is 33.5 µM; in the assay on UACC-62 melanoma, 16.1 µM; in the assay with RPMI-8226 leukemia it was 34.7 µM; with HT29 colon it was 80 µM; in the assay with HS 578T breast it was more than 100 µM; with NCI/ADR-RES ovarian it was 86.5 µM. The TGI was found to be 37.9 µM in the assay with NCI-H522 lung; 31.9 µM in the assay with LOX IMVI melanoma; 75.4 µM in the assay on UACC-257 melanoma; 28.4 µM in the assay on HCT-116 colon; 89.7 µM in the assay on SNB-19 CNS; 57.4 µM in the assay on A549 NSCLC. Also, the TGI in the assay with SK-MEL-28 melanoma was found to be 77.1 µM; with OVCAR-3 ovarian it was 43.2 µM; in the assay on MDA-MB-435, 45.2 µM; in the assay with MDA-MB-231 breast it was 23.9 µM; in the assay with MDA-N, 55 µM; with SK-MEL-2 melanoma it was 62.3 µM. In the assay on EKVX NSCLC, the TGI is 90.2 µM.
`CCOP(=O)(OCC)C(Cc1ccc(Cl)cc1)NS(=O)(=O)c1ccc(C)cc1` (stereo not drawn): the TGI in the assay with IGROV1 ovarian, with UACC-62 melanoma, in the assay on RPMI-8226 leukemia, with HT29 colon, in the assay with HS 578T breast and in the assay with NCI/ADR-RES ovarian was more than 100 µM in each case. The TGI in the assay with NCI-H522 lung, with LOX IMVI melanoma, in the assay with UACC-257 melanoma, with SNB-19 CNS, in the assay with A549 NSCLC and in the assay on SK-MEL-28 melanoma was more than 100 µM each time. Also, the TGI in the assay on OVCAR-3 ovarian, with MDA-MB-435, in the assay with MDA-MB-231 breast, with MDA-N, in the assay on SK-MEL-2 melanoma and with SN12C renal was more than 100 µM throughout. In the assay with EKVX NSCLC, this molecule showed a TGI of more than 100 µM.

(Values after PubChem BioAssay (NCI).)
